Results as given in paper PMC10641921, “Optimization of mTOR Inhibitors Using Property-Based Drug Design and Free–Wilson Analysis for Improved In Vivo Efficacy” (ACS Medicinal Chemistry Letters, 2023).
pIC50: −log10 of the molar value. Where two headings read alike, the source gives them in different places.

Tests used:
[1] = system: pAKT-S473 in PC-3 cells (TORC2); test: Cellular p-AKT (ser473) AlphaScreen assay in PC-3 cells (TORC2 activity); type: cell-based, human
Protocol: The target product profile for 1 and the next-generation analogs described here was for a dual inhibitor against both TORC1 and TORC2.
FRAP1 (mTOR) recombinant protein and GFP-4E-BP1 were purchased from Invitrogen (Carlsbad, CA, US).
The kinase activity assay was conducted in 50 mM Hepes buffer containing 10 mM MgCl2, 0.01% Brij, 0.2 mM EDTA, 2 mM DTT and 1% DMSO (after compound addition) at pH 7.3.
The IC50 value for each compound was determined in the presence of compound (various concentrations, from 0 to 10 μM) and a fixed amount of ATP (50 μM, final concentration), substrate GFP-4E-BP1 (400 nM, final concentration). The enzymatic reaction was initiated by adding FRAP1 (mTOR) (2 nM, final concentration). The assay was conducted at room temperature (~22 °C). After 30 min, the enzymatic reaction was stopped using Tb-anti-p4E-BP1 (2 nM final concentration, Invitrogen) and EDTA (20 mM final concentration, Sigma) in TR-FRET dilution buffer provided by Invitrogen. All the reagents were dispensed using a Multidrop Combi reagent dispenser (ThermoFisher Scientific, Waltham, […]
The release of product was detected using a BMG PHERAstar plate reader (BMG LABTECH, Ortenberg, Germany) and the Lantha Screen module (337 nm excitation wavelength) and measuring the ratio of fluorescence 520/490 nm (emission wavelengths). Experimental data was fitted using Eq. (1):
Vi and Vo are the rates of the enzyme activity in the presence and in the absence of inhibitor; n is the Hill coefficient; I is the free inhibitor concentration; IC 50 is a measure of potency that is equivalent to a […]
Cellular p-AKT (ser473) assay in PC-3 cells
PC-3 cells (PTEN deleted, human prostate cell line) were maintained in F12K media with 10% heat-inactivated fetal bovine serum (FBS) in 37 °C, 5% CO2 incubator. This method describes the procedure […]
from Perkin Elmer (catalog# TGRAS500). On day 1, 50,000 PC-3 cells were plated in 160 µL complete […]
Plates were placed in 37 °C, 5%
CO2 incubator for 24 h. On day 2, all media was removed and replaced with 160 µL starvation media which is F12K media (no FBS) and 0.1% BSA. Plates are placed in 37 °C, 5% CO2 incubator for 16 h. On day 3, compounds were both solubilized and serially diluted in DMSO and added to a secondary plate containing starvation media. 40 µL of compound/starvation media were added to the 160 µL in cell plate and plates were placed back in the incubator for 1 h. Cells were then activated by adding 22 µL FBS (for a final concentration of 10% FBS) for 10 min in the incubator. Media was removed from the well and cells were lysed in 100 µL SureFire kit lysis buffer and then shake n for 15 min at 900 rpm. AlphaScreen […]
assay was performed according to manufacturer’s instructions. 4 µL of lysate was added to PerkinElmer 96-well Proxiplate then 5 µL of Reaction Buffer plus Activation Buffer. Plates were shaken for 2 h at room temperature. 2 µL of Donor Beads in Dilution Buffer were added to the plate and the plate was shaken for 2 h at room temperature. The plate was read using BMG Labtech PHERAstar using AlphaScreen settings. Each analog was run in duplicate wells and a single IC50 value was calculated in […]

[2] = Human liver microsome intrinsic clearance; type: in vitro ADME; settings: apparent intrinsic clearance, scaled
[3] = molecular target: T1, CYP2C8 (Homo sapiens, UniProt P10632); test: CYP inhibition, 2C8; type: in vitro ADME; settings: most potently inhibited CYP isoform
T1 sequence (P10632 1-490): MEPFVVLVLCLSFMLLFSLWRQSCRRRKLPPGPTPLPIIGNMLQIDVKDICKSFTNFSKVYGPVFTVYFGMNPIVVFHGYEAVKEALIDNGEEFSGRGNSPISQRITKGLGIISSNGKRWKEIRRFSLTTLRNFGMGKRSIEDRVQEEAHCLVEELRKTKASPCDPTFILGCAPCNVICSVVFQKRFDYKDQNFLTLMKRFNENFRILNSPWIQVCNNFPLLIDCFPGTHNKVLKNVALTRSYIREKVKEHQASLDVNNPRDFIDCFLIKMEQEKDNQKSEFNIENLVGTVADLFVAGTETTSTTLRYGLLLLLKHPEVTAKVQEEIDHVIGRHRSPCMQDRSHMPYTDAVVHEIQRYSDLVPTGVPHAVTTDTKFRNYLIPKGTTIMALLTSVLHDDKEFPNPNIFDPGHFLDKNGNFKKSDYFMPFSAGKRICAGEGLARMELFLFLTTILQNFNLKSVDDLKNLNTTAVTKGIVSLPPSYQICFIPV

[4] = system: PI3Kα; test: PI3Kα enzyme selectivity (PI3Kα IC50 over mTOR IC50); type: biochemical; settings: ratio of PI3Kα enzyme IC50 over mTOR enzyme IC50
[5] = Rat PK (iv and po); type: in vivo; settings: for frac. abs.: estimated from %F, Cl and Qh = 70 mL min^–1 kg^–1; for bioavailability: in vivo, 4 mg/kg; for bioavailability / Cl / Vd: iv 1 mpk; for bioavailability / Cmax: po 4 mpk in 0.5% methylcellulose
Excerpt: This was an early indication that the strategy of increasing potency while lowering lipophilicity would allow us to meet our goal of improving prospects for favorable PK and dose.

[6] = system: CYP 2C8, 1A2, 2C9, 2C19, 2D6 and 3A4; test: CYP inhibition, all isoforms tested; type: in vitro ADME; settings: human
Excerpt: We also desired to remove the aniline structural alert present in the aryl urea moiety, which has been associated with idiosyncratic adverse drug reactions.[16]

[7] = molecular target: CYP-2C9 (Homo sapiens, UniProt P11712); test: CYP inhibition, 2C9; type: in vitro ADME; settings: most potently inhibited isoform was CYP-2C9
Excerpt: Table 3 New Combinations from Free–Wilson Analysis | column: CYP IC50/μM ^c

[8] = Homo sapiens, PC-3, read-out: Cell pEC50 (converted)
[9] = Homo sapiens, PC-3, PC-3 cell line, read-out: pAKT S473 Cell IC50
[10] = Homo sapiens, p-AKT S473, PC-3 cells, mean of N runs, read-out: Cell pEC50 (converted)
[11] = PC-3 cell line, read-out: pAKT S473 Cell IC50
[12] = Homo sapiens, PC-3, read-out: pAKT S473 Cell IC50

CYP-2C9, sequence (P11712 whole entry, canonical isoform): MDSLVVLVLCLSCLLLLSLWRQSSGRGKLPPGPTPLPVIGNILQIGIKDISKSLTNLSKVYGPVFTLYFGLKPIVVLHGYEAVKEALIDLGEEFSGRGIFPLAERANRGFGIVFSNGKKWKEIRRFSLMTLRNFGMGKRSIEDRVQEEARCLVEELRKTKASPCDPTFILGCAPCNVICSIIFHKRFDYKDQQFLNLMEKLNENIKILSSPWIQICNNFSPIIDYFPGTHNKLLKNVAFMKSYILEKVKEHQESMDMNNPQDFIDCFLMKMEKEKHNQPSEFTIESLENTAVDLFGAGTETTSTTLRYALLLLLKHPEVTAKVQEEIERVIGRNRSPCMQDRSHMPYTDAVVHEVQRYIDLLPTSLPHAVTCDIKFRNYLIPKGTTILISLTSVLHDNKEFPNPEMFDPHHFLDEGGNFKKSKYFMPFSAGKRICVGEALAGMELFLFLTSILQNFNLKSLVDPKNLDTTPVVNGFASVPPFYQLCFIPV

Row | SMILES | HLM Clint [2] [mL min^–1 kg^–1] | pIC50 [1, 9] | EC50 [1, 10] [nM] | PI3Kα Sel [4] [x] | PI3Kα Sel ([4]; Table 2, unit not given) | further results
1 | Cc1cccc2c(-c3ncc4c(n3)N3CCOC[C@@]3(C)C(=O)N4C3(CCO)CC3)c[nH]c12 [15e] | 6 | – | – | – | – | EC50 [1, 8]: 4.57 nM; pIC50 ([1]; Homo sapiens, PC-3, read-out: pAKT S473 Cell IC50, PC-3 cell line): 8.30; pIC50 [3]: 5.89
2 | Cc1cccc2c(-c3ncc4c(n3)N3CCOC[C@@]3(C)C(=O)N4[C@H]3CC[C@H](O)CC3)c[nH]c12 [15b] | 7 | – | – | – | – | pIC50 [3]: 5.52
3 | C[C@@]12COCCN1c1nc(-c3cnc4[nH]ccc4c3)ncc1N(CC1CC1)C2=O [3b] | – | 7.29 | 51.3 | 48 | – | –
4 | C[C@@]12COCCN1c1nc(-c3ccc(NC(=O)NC4CC4)cc3)ncc1N(CC1CC1)C2=O [3a] | – | 7.42 | 38 | 100 | – | –
5 | C[C@@]12COCCN1c1nc(-c3cncc4[nH]ccc34)ncc1N(C1CCOCC1)C2=O [4f] | – | 7.77 | 16.6 | 84 | – | –
6 | C[C@@]12COCCN1c1nc(-c3cccc4[nH]ccc34)ncc1N([C@H]1CC[C@@H](O)CC1)C2=O [14b] | 6 | 7.85 | 14.1 | – | 110 | PI3Ka sel. [4]: 110 ×; pIC50 [3]: 5.40; frac. abs. [5]: 100%; bioavailability [5]: 100%; Cl [5]: 11 mL min^–1 kg^–1; Vd [5]: 3.9 L/kg; Cmax [5]: 1400 nM
7 | C[C@@]12COCCN1c1nc(-c3cnc4[nH]ccc4c3)ncc1N(C1CCOC1)C2=O (some centres unmarked) [13a] | 12 | 7.13 | 74.1 | – | 5 | –
8 | C[C@@]12COCCN1c1nc(-c3cnc4cc[nH]c4c3)ncc1N(CC1CC1)C2=O [3c] | – | 7.04 | 91.2 | 26 | – | –
9 | C[C@@]12COCCN1c1nc(-c3cnc4[nH]ccc4c3)ncc1N(CCCO)C2=O [13c] | 9 | 6.77 | 170 | – | 9 | –
10 | Cc1cccc2c(-c3ncc4c(n3)N3CCOC[C@@]3(C)C(=O)N4[C@H]3CC[C@@H](O)CC3)c[nH]c12 [15d] | 7 | – | – | – | – | pIC50 [3]: 6.10
11 | C[C@@]12COCCN1c1nc(-c3cccc4[nH]ccc34)ncc1N(C1CCOCC1)C2=O [4e] | 10 | ≥ 7.52 | 21.4 | 110 | 110 | pIC50 [1, 11]: 7.68; pIC50 [6]: < 4.40; bioavailability [5]: 91%; Cl [5]: 15 mL min^–1 kg^–1
12 | C[C@@]12COCCN1c1nc(-c3cnc4[nH]ccc4c3)ncc1N(C1CCOCC1)C2=O [4b] | 6 | 7.21 | 61.7 | 23 | 23 | –
13 | Cc1ccc(-c2ncc3c(n2)N2CCOC[C@@]2(C)C(=O)N3[C@H]2CC[C@H](O)CC2)c2cc[nH]c12 [15a] | 6 | – | – | – | – | pIC50 [7]: 5.30; frac. abs. [5]: 41%; bioavailability [5]: 35%; Cl [5]: 10 mL min^–1 kg^–1; Vd [5]: 1.6 L/kg; Cmax [5]: 570 nM
14 | C[C@@]12COCCN1c1nc(-c3ccc(NC(=O)NC4CC4)cc3)ncc1N(C1CCOCC1)C2=O [4a] | – | 7.38 | 41.7 | 63 | – | –
15 | COCCCN1C(=O)[C@]2(C)COCCN2c2nc(-c3cnc4[nH]ccc4c3)ncc21 [13b] | 32 | 7.24 | 57.5 | – | 9 | –
16 | Cc1ccc(-c2ncc3c(n2)N2CCOC[C@@]2(C)C(=O)N3C2CCOCC2)c2cc[nH]c12 [4g] | – | 7.59 | 25.7 | 450 | – | –
17 | CC(=O)N1CCC(N2C(=O)[C@]3(C)COCCN3c3nc(-c4cccc5[nH]ccc45)ncc32)CC1 [14a] | 6 | – | – | – | 120 | EC50 [1, 8]: 55 nM; pIC50 [1, 12]: 7.26
18 | C[C@@]12COCCN1c1nc(-c3cnc4cc[nH]c4c3)ncc1N(C1CCOCC1)C2=O [4c] | – | 7.00 | 105 | 13 | – | –
19 | C[C@@]12COCCN1c1nc(-c3cnc4[nH]ccc4c3)ncc1N(C1CCN(S(C)(=O)=O)CC1)C2=O [13e] | 6 | – | – | – | 14 | EC50 [1, 8]: 120 nM; pIC50 [1, 12]: 6.92
20 | Cc1cccc2c(-c3ncc4c(n3)N3CCOC[C@@]3(C)C(=O)N4C3CCOCC3)c[nH]c12 [4i] | – | 8.05 | 8.71 | 640 | – | pIC50 [3]: 6.00
21 | C[C@@]12COCCN1c1nc(-c3c[nH]c4ccccc34)ncc1N(C1CCOCC1)C2=O [4d] | – | ≥ 7.52 | 29.5 | 120 | – | pIC50 [1, 11]: 7.52
22 | C[C@@]12COCCN1c1nc(-c3cnc4[nH]ccc4c3)ncc1N(C1(CCO)CC1)C2=O [13d] | 11 | 7.21 | 61.7 | – | 59 | –
23 | Cc1ccc(-c2ncc3c(n2)N2CCOC[C@@]2(C)C(=O)N3[C@H]2CC[C@@H](O)CC2)c2cc[nH]c12 [15c] | 8 | – | – | – | – | pIC50 [3]: 5.52
24 | Cc1ncc(-c2ncc3c(n2)N2CCOC[C@@]2(C)C(=O)N3C2CCOCC2)c2cc[nH]c12 [4h] | – | 7.32 | 47.9 | 270 | – | –
